Tested on: trained panel of 4 to 8 people
Experiment: Cooling intensity by isointensity method, trained panel tasting aqueous solutions versus WS 23
Assay type: in vivo, human
Conditions: aqueous solutions tasted, compared to aqueous solution of reference WS 23 at 2 ppm
Experimental: The cooling intensity of the compounds was determined by a trained panel of 4 to 8 people according to the isointensity method as described below.
Aqueous solutions of various concentrations of a chemical compound are prepared and tasted. The cooling intensity of each solution was compared to that of an aqueous solution of the reference compound at 2 ppm, namely N,2,3-trimethyl-2-isopropylbutanamde (WS 23).

Going from `CC(C)C(C(=O)Nc1ccc(C#N)cc1)C(C)C` [Ex. 1, N-(4-cyanophenyl) 2-isopropylisovaleramide] to `COc1ccc(NC(=O)C(C(C)C)C(C)C)cc1` [Ex. 2E, N-(4-Methoxyphenyl)2-isopropylisovaleramide], the rel. cooling intensity falls from 1.3 to 1.1.

Compared with `CC(C)C(C)(C(=O)Nc1ccc(C#N)cc1)C(C)C` [Ex. 2A, N-(4-Cyanophenyl)2-methyl-2-isopropylisovaleramide], `CC(C)C(C)(C(=O)Nc1ccc(CC#N)cc1)C(C)C` [Ex. 2C, N-(4-Cyanomethyl-phenyl)-2-methyl-2-isopropyl-isovaleramide] is lower in rel. cooling intensity: 1.5 for the first, 0.2 for the second.

First: COc1ccc(NC(=O)C(C)(C(C)C)C(C)C)cc1 [Ex. 2B, N-(4-Methoxyphenyl)2-methyl-2-isopropylisovaleramide]
Second: COc1ccc(NC(=O)C(C)(C(C)C)C(C)C)c(OC)c1 [Ex. 2G]
The rel. cooling intensity of the first is higher: 1.1 for the first, 0.9 for the second.

Going from `CC(C)C(C(=O)Nc1ccccc1C#N)C(C)C` [Ex. 2F, N-(2-Cyanophenyl)2-isopropylisovaleramide] to `CC(C)C(C)(C(=O)Nc1ccc2c(c1)OCO2)C(C)C` [Ex. 2H, N-Benzo[1,3]dioxol-5-yl 2-methyl-2-isopropylisovaleramide], the rel. cooling intensity falls from 1.7 to 0.9.

`COc1cc(CNC(=O)C(C)(C(C)C)C(C)C)ccc1O` [Ex. 2I, N-Vanillyl 2-methyl-2-isopropylisovaleramide] was tested, and the rel. cooling intensity was 0.8.
